Here are results for two compounds from US20220089646A1 (THE UNIVERSITY OF QUEENSLAND, priority 2019, published 2022).

As a reminder, the half-life is how long it takes for the measured level to halve. For orientation: EC50 means the concentration needed to bring the measured effect to its halfway point. Low values mean higher potency in that assay, high ones lower potency in that assay.

Like-named read-outs stand apart in the source and are kept apart here. *1 amine or outer side, *2 acyl side, *3 side chain or, on linkers, in order; H or OH if unused. Where a SMILES comes first, the peptide text is derived from it. Bridges are numbered along the chain shown (N, C = ends). [ ]: non-standard residue; d: D form. NHCH2CMe2S = CC(C)(CN[*:1])S[*:2]

One series is described as follows: Serum stability. It is filed as in vitro ADME. The following applies: rat. As to the method:
Purified DP-7-11 (1 mg/mL) was dissolved in 0.1 M ammonium bicarbonate (NH4HCO3) buffer. To prepare a stock trypsin solution, 1 mg trypsin was dissolved in 50 mL of 0.1 M NH4HCO3 buffer. Equal volumes of the stock trypsin solution (62.5 μL) and DP-7-11 solution (62.5 μL) were incubated in 375 μL of 0.1M NH4HCO3 buffer in a 37° C. water bath. Aliquots of 100 μL were collected from this mixture at set time intervals of 0 min, up to 24 hours. Ice-cold acetonitrile containing 0.5% TFA was used to quench the reaction between DP-7-11 and trypsin at predetermined intervals, and just prior to HPLC or LC-MS analysis. The quenched samples were vortexed for 10 minutes followed by centrifugation at 12,000 rpm for a further 15 minutes. Supernatant was sampled and analysed using analytical RP-HPLC or LC-MS. Samples without trypsin acted as negative controls and were sampled at two intervals of 0 hour and 6 hours.
Serum stability of DP-7-11 was also performed. In this regard, rat serum replaced trypsin and NH4HCO3 buffer. Water was used as negative control in place of serum, with the stability study performed in an identical fashion to the trypsin study. […] DP-11-00 and DP-11-06 were tested in a similar manner.
As used in this serum and trypsin stability discussion, the term ‘degraded completely’ relates to the relevant compound being completely absent when tested. In other words, the compound being tested is not observed when tested.
This appears to indicate the improved metabolic stability of the present invention.
The serum and trypsin stability of DP-7-11 and DP-7-12 were tested (in some instances again) using LC-MS. The LC-MS utilized in this study was more sensitive than the LC-MS utilized in the above tests.

The target in the next series is MOP (Homo sapiens, UniProt P35372). Put plainly: In vitro cAMP activity at MOP (Table 10). It is filed as cell-based. The following applies: cAMP inhibition, four-parameter regression. The procedure:
The CP series compounds were assayed as follows: The assay was performed using a 96 well ½ area plate. The different cAMP standard solutions (3 μL/well) were plated in duplicate. The different concentrations of drug (3 μL/well), and control solutions (3 μL/well) were plated in triplicate. Following this, the acceptor bead mixture (3 μL/well) was added to the respective sets—either cAMP standard curve or the treatment. This was covered and incubated on the orbital shaker for 60 minutes at 37° C. Then, the donor bead mixture (10 μL/well) was added to each well. This was incubated at room temperature overnight on the orbital shaker.
For DP-11-06 the assay was carried out in the same way as for the CP compounds except it was incubated for 30 mins at 37° C.
For the CP series compounds and DP-11-06, the Ensight® Multimode Plate Reader was used to quantify the fluorescence units of each plate. Before reading, each plate was centrifuged at 280 g for 30 seconds. Using GraphPad Prism7® Software, cAMP concentrations were determined by fit spline/LOWESS analysis. The cAMP standard curve was used for interpolation at this point. The cAMP concentrations were then normalized to the highest cAMP concentration recorded and analyzed by one-way ANOVA for multiple comparisons. The IC50 for each compound was then calculated using GraphPad Prism7® with non-linear regression analysis using four parameter curve fitting.
In this regard, a different regression analysis method was adopted on the above cAMP experiments. Particularly, a new non-linear regression (four-parameter) was adopted to better account for hill slope, thereby improving the regression fit.

Chain of MOP (P35372 whole entry): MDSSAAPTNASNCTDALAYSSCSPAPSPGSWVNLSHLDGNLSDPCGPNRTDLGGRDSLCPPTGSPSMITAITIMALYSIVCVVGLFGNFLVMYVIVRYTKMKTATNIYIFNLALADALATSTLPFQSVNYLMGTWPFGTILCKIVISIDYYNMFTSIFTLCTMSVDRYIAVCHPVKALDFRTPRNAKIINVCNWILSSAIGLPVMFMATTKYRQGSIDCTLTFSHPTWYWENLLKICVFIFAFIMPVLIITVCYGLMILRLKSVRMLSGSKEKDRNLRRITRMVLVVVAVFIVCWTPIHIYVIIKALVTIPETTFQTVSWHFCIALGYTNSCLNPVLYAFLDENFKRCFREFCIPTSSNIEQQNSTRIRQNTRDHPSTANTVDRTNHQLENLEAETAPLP

`CC1(C)CNC(=O)C[C@@H](NC(=O)[C@@H](N)Cc2ccc(O)cc2)C(=O)NCC(=O)N[C@@H](Cc2ccccc2)C(=O)N[C@H](C(=O)N[C@@H](CCCNC(=N)N)C(=O)N[C@@H](CCCNC(=N)N)C(N)=O)CSS1` [DP-7-12, c(Tyr-D(Asp)-Gly-Phe-SSa-Arg-Arg)] (H-Y[dD]GFCRR-NH2; linker 2-5 via NHCH2CMe2S): the remaining at 1 h, 0.125 mg/mL in the series “Serum stability” (after 1 hr, read-out: Peptide still present in serum) is approximately 67%. For the same compound, the remaining at 2 h, 0.125 mg/mL in “Serum stability” (after 2 hours, read-out: Peptide still present in serum) is approximately 20%. Besides, the half-life at 0.125 mg/mL in “Serum stability” (more sensitive LC-MS (Table 8a), read-out: Incubation in serum: half-life) is approximately 0.75 h. Moreover, the EC50 on MOP worked out at 2.7 nM.
In the case of `CC1(C)CNC(=O)C[C@H](C(=O)N[C@@H](CCCNC(=N)N)C(=O)N[C@@H](CCCNC(=N)N)C(N)=O)NC(=O)[C@H](Cc2ccccc2)NC(=O)CNC(=O)[C@@H](NC(=O)[C@@H](N)Cc2ccc(O)cc2)CSS1` [DP-7-11, c(Tyr-SSa-Gly-Phe-D(Asp)-Arg-Arg)], the half-life at 0.125 mg/mL was 6 h in the series “Serum stability” (37° C., LC-MS (Table 8), read-out: Serum half-life (converted)) and more than 6 h in “Serum stability” (more sensitive LC-MS (Table 8a), read-out: Incubation in serum: half life). Moreover, the metabolised at 6 h, 0.125 mg/mL in the series “Serum stability” (up to 6 h, more sensitive LC-MS, read-out: Degradation in serum) is approximately 10%. The compound also had an EC50 at MOP of more than 10000 nM.
